# Measured values: patent publication US20210038587A1, “METHODS AND COMPOSITIONS FOR TREATING NON-ERK MAPK PATHWAY INHIBITOR-RESISTANT CANCERS” (BIOMED VALLEY DISCOVERIES, INC., priority 2013, published 2021)
# Several values for one entry are separate records, joined by “and”; a condition that tells them apart may be missing. Equal values may be shown once.
# Key:
# advanced solid tumors = experiment: Phase I study: antitumor response (RECIST v1.1, 18F-FDG-PET); format: in vivo, human
# Protocol: For measurement of antitumor response, tumor measurements based on physical examination occurred at baseline and on the first day of each treatment cycle. CT and other assessments were made every 2 to 3 cycles. Findings were assessed in accordance with RECIST v1.1: CR was defined as disappearance of all target lesions; PR was defined as a ≥30% decrease in the sum of the longest diameters of target lesions, taking baseline measurements as reference; stable disease was defined as being of neither sufficient shrinkage to qualify for PR nor sufficient increase to qualify for progressive disease, taking as reference the baseline measurement.
# RKO Parental = experiment: Single agent proliferation assay (CellTiter-Glo, 96 h); format: cell-based
# Protocol: (§1) For assessment of drug sensitivity in cell-line models of acquired resistance, drug sensitivity of dose-escalated A375 cells and isogenic RKO cells was assessed in 96-hour proliferation assays. […] For the A375 assays Alamar blue (ThermoFisher) 10% (v/v) was added and incubated for 4 h, and fluorescent product was then detected using a BMG FLUOstar.
# (§2) Compounds were prepared from DMSO stocks to give the desired final concentrations. The final DMSO concentration was constant at 0.1%. […] CellTiter-Glo® reagent (Promega, Madison, Wis.) was added according to manufacturer's instructions and luminescence detected using the BMG FLUOstar plate reader (BMG Labtech, Ortenberg, Germany).
# [1] = system: patient-derived xenograft (AT052C); experiment: Patient-derived xenograft from vemurafenib-refractory BRAFV600E melanoma; format: in vivo, mice; details: 100 mg/kg BID, 28 days
# Text: Tumor fragments were harvested from host animals and implanted into immune-deficient mice.
# [2] = system: RKO MEK1 (Q56P/+) Clone 1; experiment: Single agent proliferation assay (CellTiter-Glo, 96 h); format: cell-based; details: RKO MEK1 Q56P/+ Cl.1
# Protocol: as §1
# (§3) RKO MEK1 Q56P Isogenic cells were produced by Horizon Discovery (Cambridge, UK; #HD 106-019) using a recombinant AAV-mediated gene targeting strategy. Briefly, rAAV virus was generated following transfection of the appropriate targeting vector and helper vectors in HEK293T cells, purified using an AAV purification kit (Virapur, San Diego, USA) and titrated using qPCR. Parental homozygous RKO cells (homozygous wild type for MEK1) were then infected with rAAV virus and clones that had integrated the selection cassette were identified by G418 selection and expanded. Correctly targeted clones that were heterozygous for knock-in of the MEK1 Q56P point mutation into a single allele were identified by PCR and sequencing.
# as §2
# [3] = system: RKO MEK1 (Q56P/+) Clone 2; experiment: as above; format: cell-based; details: RKO MEK1 Q56P/+ Cl.2
# Protocol: as §1, §3, §2
# ROCKII = ROCKII (Homo sapiens, UniProt O75116); experiment: Kinase counter-screen, Ki; format: biochemical; details: apparent Ki
# Sequence of ROCKII (O75116 whole entry, species assumed): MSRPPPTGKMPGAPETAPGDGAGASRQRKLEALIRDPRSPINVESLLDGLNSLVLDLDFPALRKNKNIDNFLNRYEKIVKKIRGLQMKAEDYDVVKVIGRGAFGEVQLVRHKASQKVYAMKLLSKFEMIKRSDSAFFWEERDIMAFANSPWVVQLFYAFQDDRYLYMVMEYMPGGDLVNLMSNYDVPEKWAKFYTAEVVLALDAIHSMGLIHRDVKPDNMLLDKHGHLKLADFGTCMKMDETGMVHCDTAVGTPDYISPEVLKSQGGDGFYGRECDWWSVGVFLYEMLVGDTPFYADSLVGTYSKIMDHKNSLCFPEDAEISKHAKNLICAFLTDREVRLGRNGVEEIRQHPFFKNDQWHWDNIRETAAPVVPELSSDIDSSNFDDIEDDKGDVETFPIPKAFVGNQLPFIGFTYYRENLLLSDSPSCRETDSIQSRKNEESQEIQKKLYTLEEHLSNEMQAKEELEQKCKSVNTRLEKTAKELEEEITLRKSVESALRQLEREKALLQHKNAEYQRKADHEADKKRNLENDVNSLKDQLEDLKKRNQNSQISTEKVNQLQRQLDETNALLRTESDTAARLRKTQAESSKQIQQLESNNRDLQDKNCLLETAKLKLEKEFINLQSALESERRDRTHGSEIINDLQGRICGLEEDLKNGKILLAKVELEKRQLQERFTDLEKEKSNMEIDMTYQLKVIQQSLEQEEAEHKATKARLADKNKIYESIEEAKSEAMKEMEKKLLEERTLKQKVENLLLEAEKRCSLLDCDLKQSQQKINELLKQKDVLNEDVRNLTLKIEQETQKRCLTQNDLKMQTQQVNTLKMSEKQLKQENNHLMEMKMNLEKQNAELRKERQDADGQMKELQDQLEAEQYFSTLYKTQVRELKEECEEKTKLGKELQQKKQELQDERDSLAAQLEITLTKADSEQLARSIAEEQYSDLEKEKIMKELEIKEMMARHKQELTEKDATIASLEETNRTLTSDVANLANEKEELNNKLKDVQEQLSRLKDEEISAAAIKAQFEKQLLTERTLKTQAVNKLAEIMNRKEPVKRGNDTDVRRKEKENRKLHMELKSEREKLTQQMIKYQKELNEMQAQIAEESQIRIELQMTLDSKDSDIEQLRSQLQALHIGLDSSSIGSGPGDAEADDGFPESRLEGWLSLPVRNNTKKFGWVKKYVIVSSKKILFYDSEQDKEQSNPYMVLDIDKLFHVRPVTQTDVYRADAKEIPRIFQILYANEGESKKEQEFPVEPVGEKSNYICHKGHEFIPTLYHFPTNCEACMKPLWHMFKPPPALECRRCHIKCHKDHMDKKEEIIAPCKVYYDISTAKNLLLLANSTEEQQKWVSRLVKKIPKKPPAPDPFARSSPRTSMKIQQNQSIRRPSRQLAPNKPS
# Text: The ATP concentrations were approximately equal to the Km in all assays.
# HT29 = experiment: Reverse Phase Protein Analysis (RPPA); format: cell-based; details: % change from DMSO (matched cell line)
# Protocol: (§4) Control wells were treated with DMSO at 0.1% (v/v) for 6 hours prior to cell lysate generation. Samples were then analyzed using reverse-phase protein microarray technology (Theranostics Health).
# (§5) Cell lines with common alterations in BRAF and RAS were assayed: BRAF^V600E mutant lines A375, Colo205, and HT29; KRAS^G12C-mutant cell line MIAPACa-2; KRAS^G13D-mutant cell line HCT116; and AN3Ca with atypical HRAS^F82L mutation. Changes in protein levels are shown as a percentage change from dimethyl sulfoxide (DMSO)-treated parental control (FIG. 32A and Table 23).
# AN3Ca = experiment: Reverse Phase Protein Analysis (RPPA); format: cell-based; details: % change from DMSO (matched cell line)
# Protocol: as §4, §5
smiles,measurement,setting,value
CC(C)Nc1cc(-c2c[nH]c(C(=O)N[C@H](CO)c3cccc(Cl)c3)c2)c(Cl)cn1 [BVD-523],"durable partial response, duration of dosing","advanced solid tumors; 600 mg BID, progressed on prior vemurafenib and dabrafenib/trametinib",> 300 days
same,partial response,"advanced solid tumors; 25 evaluable patients, all melanoma with BRAF^V600 mutations",3 patients
same,progressive disease at first evaluation,advanced solid tumors; in vivo,4 patients
same,stable disease,advanced solid tumors; in vivo,18 patients
same,stable disease for more than 3 months (additional patients),advanced solid tumors; in vivo,6 patients
same,stable disease for more than 6 months,advanced solid tumors; in vivo,6 patients
same,reduction in the sum of target lesions from baseline,advanced solid tumors; other partial responders,47.0% and 33.6%
same,reduction in the sum of target lesions from baseline,advanced solid tumors; partial responder at 450 mg BID,~70%
same,duration of partial response,"advanced solid tumors; patient intolerant to other BRAF/MEK inhibitors, ongoing by data cutoff",≥ 313 days
same,duration of partial response,"advanced solid tumors; patient refractory to prior BRAF/MEK inhibitors, ongoing",≥ 294 days
same,IC50,RKO Parental,0.2 µM
same,TGI,[1],78%
same,IC50,[2],0.17 µM
same,IC50,[3],0.18 µM
same,Ki,ROCKII,0.27 µM
same,Avg (4ebp1 T70),HT29,−41.47%
same,Avg (Akt S473),HT29,−3.06%
same,Avg (Akt),HT29,−13.41%
same,Avg (Bad S136),HT29,10.73%
same,Avg (Bad S155),HT29,−25.9%
same,Avg (Bak),HT29,−1.42%
same,Avg (Bax),HT29,8.39%
same,Avg (Bcl 2),HT29,10.68%
same,Avg (Bcl2 S70),HT29,2.83%
same,Avg (Bcl 2 T56),HT29,−8.18%
same,Avg (Bim),HT29,2.81%
same,Avg (CREB S133),HT29,−3.46%
same,Avg (Caspase 3 CL D175),HT29,−7.03%
same,Avg (Caspase 7 Cl D198),HT29,−6.93%
same,Avg (Chk1),HT29,7.4%
same,Avg (Chk1 S345),HT29,−13.48%
same,Avg (Cyclin D1),HT29,−37.21%
same,Avg (ERK 1 2),HT29,−44.3%
same,Avg (ERK 1 2 T202 Y204),HT29,54.82%
same,Avg (MAK1 S360),HT29,1.49%
same,Avg (Mcl1),HT29,−2.83%
same,Avg (Raptor S792),HT29,−10.48%
same,Avg (Raptor),HT29,−8.53%
same,Avg (Rictor),HT29,−18.76%
same,Avg (Stat1),HT29,4.74%
same,Avg (Stat3),HT29,−6.46%
same,Avg (bad S112),HT29,−20.66%
same,Avg (c Fos),HT29,−13.48%
same,Avg (c Myc),HT29,17.85%
same,Avg (mTOR S2448),HT29,−20.68%
same,Avg (mTOR S2481),HT29,−8.64%
same,Avg (mTOR),HT29,5.02%
same,Avg (p70 S6 Kinase),HT29,−10.64%
same,Avg (p90 RSK S380),HT29,−60.5%
same,Avg(S6 Ribo Prot S235 236),HT29,−44.68%
same,Avg(S6 Ribo Prot S240 244),HT29,−25.67%
same,Avg(Tuberin TSC2 Y1571),HT29,0.66%
same,Avg(p70 S6 Kinase S371 S394),HT29,−35.94%
same,Avg(p70 S6 Kinase T389 T412),HT29,−24.58%
same,Avg (4ebp1 T70),AN3Ca,32.17%
same,Avg (Akt S473),AN3Ca,52.11%
same,Avg (Akt),AN3Ca,−22.43%
same,Avg (Bad S136),AN3Ca,−1.02%
same,Avg (Bad S155),AN3Ca,0.66%
same,Avg (Bak),AN3Ca,3.38%
same,Avg (Bax),AN3Ca,−10.47%
same,Avg (Bcl 2),AN3Ca,−16.83%
same,Avg (Bcl2 S70),AN3Ca,−14.81%
same,Avg (Bcl 2 T56),AN3Ca,−12.85%
same,Avg (Bim),AN3Ca,−12.57%
same,Avg (CREB S133),AN3Ca,1.03%
same,Avg (Caspase 3 CL D175),AN3Ca,−10.8%
same,Avg (Caspase 7 Cl D198),AN3Ca,−12.35%
same,Avg (Chk1),AN3Ca,−8.45%
same,Avg (Chk1 S345),AN3Ca,−13.34%
same,Avg (Cyclin D1),AN3Ca,−0.69%
same,Avg (ERK 1 2),AN3Ca,−9.05%
same,Avg (ERK 1 2 T202 Y204),AN3Ca,733.27%
same,Avg (MAK1 S360),AN3Ca,0.49%
same,Avg (Mcl1),AN3Ca,−4.9%
same,Avg (Raptor S792),AN3Ca,−8.47%
same,Avg (Raptor),AN3Ca,−13.82%
same,Avg (Rictor),AN3Ca,−4.52%
same,Avg (Stat1),AN3Ca,−5.65%
same,Avg (Stat3),AN3Ca,−4.97%
same,Avg (bad S112),AN3Ca,−54.1%
same,Avg (c Fos),AN3Ca,−5.15%
same,Avg (c Myc),AN3Ca,−0.58%
same,Avg (mTOR S2448),AN3Ca,−10.79%
same,Avg (mTOR S2481),AN3Ca,2.75%
same,Avg (mTOR),AN3Ca,5.58%
same,Avg (p70 S6 Kinase),AN3Ca,−10.27%
same,Avg (p90 RSK S380),AN3Ca,−28.11%
same,Avg(S6 Ribo Prot S235 236),AN3Ca,−43.41%
same,Avg(S6 Ribo Prot S240 244),AN3Ca,−22.2%
same,Avg(Tuberin TSC2 Y1571),AN3Ca,2.86%
same,Avg(p70 S6 Kinase S371 S394),AN3Ca,32.26%
same,Avg(p70 S6 Kinase T389 T412),AN3Ca,−14.78%
